Measured values taken from BigSolDB 2.1.

## CC(C)C(=O)OCC(=O)[C@@]12O[C@H](C3CCCCC3)O[C@@H]1C[C@H]1[C@@H]3CCC4=CC(=O)C=C[C@]4(C)[C@H]3[C@@H](O)C[C@@]12C
In acetonitrile, 278.15 K
  solubility (mole fraction): 0.00485
In acetonitrile, 280.65 K
  solubility (mole fraction): 0.00528
In acetonitrile, 283.15 K
  solubility (mole fraction): 0.00576
In acetonitrile, 285.65 K
  solubility (mole fraction): 0.00626
In acetonitrile, 288.15 K
  solubility (mole fraction): 0.00687
In acetonitrile, 290.65 K
  solubility (mole fraction): 0.00739
In acetonitrile, 293.15 K
  solubility (mole fraction): 0.008
In acetonitrile, 295.65 K
  solubility (mole fraction): 0.00865
In acetonitrile, 298.15 K
  solubility (mole fraction): 0.00937
In acetonitrile, 300.65 K
  solubility (mole fraction): 0.0101
In acetonitrile, 303.15 K
  solubility (mole fraction): 0.0109
In acetonitrile, 305.65 K
  solubility (mole fraction): 0.0117
In acetonitrile, 308.15 K
  solubility (mole fraction): 0.0126
In acetonitrile, 310.65 K
  solubility (mole fraction): 0.0135
In acetonitrile, 313.15 K
  solubility (mole fraction): 0.0143
In ethanol, 278.15 K
  solubility (mole fraction): 0.00231
In ethanol, 280.65 K
  solubility (mole fraction): 0.00276
In ethanol, 283.15 K
  solubility (mole fraction): 0.00333
In ethanol, 285.65 K
  solubility (mole fraction): 0.00398
In ethanol, 288.15 K
  solubility (mole fraction): 0.00478
In ethanol, 290.65 K
  solubility (mole fraction): 0.00568
In ethanol, 293.15 K
  solubility (mole fraction): 0.00674
In ethanol, 295.65 K
  solubility (mole fraction): 0.00796
In ethanol, 298.15 K
  solubility (mole fraction): 0.00937
In ethanol, 300.65 K
  solubility (mole fraction): 0.011
In ethanol, 303.15 K
  solubility (mole fraction): 0.0129
In ethanol, 305.65 K
  solubility (mole fraction): 0.0151
In ethanol, 308.15 K
  solubility (mole fraction): 0.0176
In ethanol, 310.65 K
  solubility (mole fraction): 0.0204
In ethanol, 313.15 K
  solubility (mole fraction): 0.0237
In ethyl acetate, 278.15 K
  solubility (mole fraction): 0.0515
In ethyl acetate, 280.65 K
  solubility (mole fraction): 0.0559
In ethyl acetate, 283.15 K
  solubility (mole fraction): 0.0604
In ethyl acetate, 285.65 K
  solubility (mole fraction): 0.0653
In ethyl acetate, 288.15 K
  solubility (mole fraction): 0.0704
In ethyl acetate, 290.65 K
  solubility (mole fraction): 0.076
In ethyl acetate, 293.15 K
  solubility (mole fraction): 0.0818
In ethyl acetate, 295.65 K
  solubility (mole fraction): 0.088
In ethyl acetate, 298.15 K
  solubility (mole fraction): 0.0945
In ethyl acetate, 300.65 K
  solubility (mole fraction): 0.101
In ethyl acetate, 303.15 K
  solubility (mole fraction): 0.109
In ethyl acetate, 305.65 K
  solubility (mole fraction): 0.116
In ethyl acetate, 308.15 K
  solubility (mole fraction): 0.124
In ethyl acetate, 310.65 K
  solubility (mole fraction): 0.133
In ethyl acetate, 313.15 K
  solubility (mole fraction): 0.141
In isopropanol, 278.15 K
  solubility (mole fraction): 0.00814
In isopropanol, 280.65 K
  solubility (mole fraction): 0.00948
In isopropanol, 283.15 K
  solubility (mole fraction): 0.0111
In isopropanol, 285.65 K
  solubility (mole fraction): 0.013
In isopropanol, 288.15 K
  solubility (mole fraction): 0.0151
In isopropanol, 290.65 K
  solubility (mole fraction): 0.0175
In isopropanol, 293.15 K
  solubility (mole fraction): 0.0203
In isopropanol, 295.65 K
  solubility (mole fraction): 0.0234
In isopropanol, 298.15 K
  solubility (mole fraction): 0.0271
In isopropanol, 300.65 K
  solubility (mole fraction): 0.0312
In isopropanol, 303.15 K
  solubility (mole fraction): 0.0359
In isopropanol, 305.65 K
  solubility (mole fraction): 0.0411
In isopropanol, 308.15 K
  solubility (mole fraction): 0.047
In isopropanol, 310.65 K
  solubility (mole fraction): 0.0536
In isopropanol, 313.15 K
  solubility (mole fraction): 0.061
In n-butanol, 278.15 K
  solubility (mole fraction): 0.0669
In n-butanol, 280.65 K
  solubility (mole fraction): 0.0689
In n-butanol, 283.15 K
  solubility (mole fraction): 0.0716
In n-butanol, 285.65 K
  solubility (mole fraction): 0.0743
In n-butanol, 288.15 K
  solubility (mole fraction): 0.0779
In n-butanol, 290.65 K
  solubility (mole fraction): 0.0815
In n-butanol, 293.15 K
  solubility (mole fraction): 0.0852
In n-butanol, 295.65 K
  solubility (mole fraction): 0.0898
In n-butanol, 298.15 K
  solubility (mole fraction): 0.0942
In n-butanol, 300.65 K
  solubility (mole fraction): 0.0993
In n-butanol, 303.15 K
  solubility (mole fraction): 0.105
In n-butanol, 305.65 K
  solubility (mole fraction): 0.111
In n-butanol, 308.15 K
  solubility (mole fraction): 0.118
In n-butanol, 310.65 K
  solubility (mole fraction): 0.124
In n-butanol, 313.15 K
  solubility (mole fraction): 0.131
In n-propanol, 278.15 K
  solubility (mole fraction): 0.0141
In n-propanol, 280.65 K
  solubility (mole fraction): 0.0164
In n-propanol, 283.15 K
  solubility (mole fraction): 0.0191
In n-propanol, 285.65 K
  solubility (mole fraction): 0.0222
In n-propanol, 288.15 K
  solubility (mole fraction): 0.025
In n-propanol, 290.65 K
  solubility (mole fraction): 0.029
In n-propanol, 293.15 K
  solubility (mole fraction): 0.0334
In n-propanol, 295.65 K
  solubility (mole fraction): 0.0385
In n-propanol, 298.15 K
  solubility (mole fraction): 0.0437
In n-propanol, 300.65 K
  solubility (mole fraction): 0.05
In n-propanol, 303.15 K
  solubility (mole fraction): 0.0567
In n-propanol, 305.65 K
  solubility (mole fraction): 0.0644
In n-propanol, 308.15 K
  solubility (mole fraction): 0.0728
In n-propanol, 310.65 K
  solubility (mole fraction): 0.0825
In n-propanol, 313.15 K
  solubility (mole fraction): 0.0925
In toluene, 278.15 K
  solubility (mole fraction): 0.0297
In toluene, 280.65 K
  solubility (mole fraction): 0.0318
In toluene, 283.15 K
  solubility (mole fraction): 0.0342
In toluene, 285.65 K
  solubility (mole fraction): 0.0367
In toluene, 288.15 K
  solubility (mole fraction): 0.0392
In toluene, 290.65 K
  solubility (mole fraction): 0.0421
In toluene, 293.15 K
  solubility (mole fraction): 0.0449
In toluene, 295.65 K
  solubility (mole fraction): 0.0479
In toluene, 298.15 K
  solubility (mole fraction): 0.0511
In toluene, 300.65 K
  solubility (mole fraction): 0.0544
In toluene, 303.15 K
  solubility (mole fraction): 0.0579
In toluene, 305.65 K
  solubility (mole fraction): 0.0616
In toluene, 308.15 K
  solubility (mole fraction): 0.0654
In toluene, 310.65 K
  solubility (mole fraction): 0.0694
In toluene, 313.15 K
  solubility (mole fraction): 0.0735
